The target in data set [1] is T1, pneumolysin (Streptococcus pneumoniae serotype 2, UniProt Q04IN8). The experiment in a line: Ex vivo meningitis assay: effect of pneumolysin on ciliary function of cultured ependymal cells. Type of data set: cell-based. The conditions noted are these: rat ependymal cells; compound 1.56 μM; recorded over 30 min; FIG. 2. The source says: The ependymal ciliated cells line the cerebral ventricles of the brain and the central canal of the spinal cord and are covered with cilia responsible for the circulation of the cerebrospinal fluid (CSF) around the central nervous system. This layer acts as a selective brain barrier to and from the cerebrospinal fluid and plays a role in controlling the CSF volume. To study if the inhibitors prevent the damage caused by pneumolysin on the ependymal layer, a rat ex vivo model of meningitis was used. This model is based on culturing and differentiating ciliated ependymal cells from neonate rat brains, which recreate the in vivo situation, where cells lining the brain ventricles, are exposed to S. pneumoniae and its toxic products.
Ependymal cell cultures were prepared by the method previously described [Microb. Pathog. (1999) 27 303-309]. Tissue culture trays were coated with bovine fibronectin and incubated at 37° C. in 5% (v/v) CO2 for 2 h before use. […]
After approximately two weeks, the cells were fully ciliated and ready for experiments. […] Beating cilia were recorded before and after exposure over 30 min, with a digital high-speed video camera at a rate of 500 frames/s. The recorded video sequences were played back at reduced frame rates and the ciliary beat frequency (CBF) was determined by the following equation: […]

Data set [2] addresses T1, pneumolysin. The experiment in a line: Inhibition of pneumolysin-induced lactate dehydrogenase (LDH) release from A549 human lung epithelial cells. The data set is classed as cell-based. On the procedure: Pneumolysin induces the release of lactate dehydrogenase (LDH) from human monocytes and lung epithelial cells: a phenomenon that is indicative of plasma membrane damage or rupture [Infect. Immun. (2002) 70 1017-1022].
Human lung epithelial cells (A549) were seeded in flat-bottomed 96-well tissue culture plates and grown in RPMI 1640 medium supplemented with Glutamine, at 37° C., 5% CO2, for 24 h.
Before use, the cells were washed with PBS. Test compound dilutions were incubated with pneumolysin as described in Section A, then transferred to wells containing the human lung epithelial cells and the plates were incubated at 37° C., 5% CO2, for 30 min. The following controls were included on the plate (1) Negative controls, called low control (PBS only) to measure the natural release of LDH from the cells in culture, (2) positive controls (1% (v/v) Triton-X in PBS) to measure the maximum release of LDH from the cells (3) Pneumolysin solution only to measure pneumolysin-induced LDH release, (4) Test compound solution to assess the toxicity of the compound alone. […] Absorbance at 490 nm and 655 nm was then measured. The percentage of LDH release induced by pneumolysin in the presence and absence of test compounds was plotted against the Log of the concentration of the compound and the IC50 was determined, as described above in the inhibition of haemolysis assay, Section A.

Data set [3] in a line: Solubility testing in PBS or 0.9% saline. The data set is classed as physicochemical. The conditions noted are these: result in words. As for the experimental part:
Solubility studies were performed by charging a vial with 5-10 mg of compound followed by the 40 addition of PBS solution or 0.9% saline to achieve a concentration of 100 mg/ml. If solubility was not observed the solution was diluted to concentrations of 50 mg/ml, 25 mg/ml and 4 mg/ml consecutively until complete solubility was observed.

The target of data set [4] is T1, pneumolysin. Description: Inhibition of the haemolytic activity of pneumolysin (sheep erythrocytes). The data set is classed as cell-based. The conditions noted are these: pneumolysin at LD100, sheep erythrocytes, 37° C., read-out: IC50. On the procedure: The basis of this assay is that when pneumolysin is added to red blood cells, it induces their lysis and leads to the release of haemoglobin. In the presence of an inhibitory compound, pneumolysin-induced lysis is abolished, the red blood cells pellet at the bottom of the microtitre plate well and the supernatant is clear. However, if the compound is not inhibitory, the red blood cells are lysed and haemoglobin is released into the supernatant.
Test compound solutions (typically at 5 mM in DMSO) were diluted 1:1 in 100% DMSO. The compounds were then two-fold serially diluted in 100% DMSO across 11 wells of 96-well round-bottomed microtitre plate. PBS was then added to all the wells to achieve a 1:10 dilution of the compound in PBS. Pneumolysin was then added at a concentration equal to its LD100. Plates were then incubated at 37° C. for 30-40 min. After the incubation period, an equal volume of 4% (v/v) sheep erythrocyte suspension was added to each well and the plates incubated again at 37° C., for at least 30 min. Controls with only erythrocytes in PBS (control for no lysis) or erythrocytes plus pneumolysin (control for lysis) were prepared following the same procedure. Following the incubation with the erythrocytes, the Absorbance at 595 nm of each well was measured and the data used to determine the IC50 for each test compound. The IC50 values were determined using non-linear regression curve fitting. For that, the Log of the concentrations of the test compound was plotted against the percentage inhibition, estimated from the A595 values, followed by fitting a Hill Slope to the data.

Data set [5] in a line: Chemical stability assessment in PBS at 37.5° C. (HPLC). The data set is classed as physicochemical. The conditions noted are these: buffer, pH 6.2, read-out: Chemical stability at pH 6.2-7.2 (t1/2) (converted). As for the experimental part:
Stability studies were carried out by dissolving 1-2 mg of compound in DMSO (1 mL) followed by addition of 0.4 mL of the resulting solution to stirred PBS solution (9.6 mL) at 37.5° C. A sample (ca. 0.5 mL) was immediately taken for HPLC analysis. Further samples were then taken for analysis at various timepoints thereafter. Half-lives were determined from the decrease in concentration of compound with respect to time.
Stability studies were performed by dissolving 1-2 mg of compound in DMSO (1 ml) followed by addition of 0.4 ml of the resulting solution to stirred PBS (9.6 ml) at 37.5° C. A sample (˜0.5 ml) was immediately taken for HPLC analysis. Further samples were then taken for analysis at various time-points thereafter. Half-lives were determined from the decrease in concentration of compound with respect to time.

T1 sequence (Q04IN8 whole entry): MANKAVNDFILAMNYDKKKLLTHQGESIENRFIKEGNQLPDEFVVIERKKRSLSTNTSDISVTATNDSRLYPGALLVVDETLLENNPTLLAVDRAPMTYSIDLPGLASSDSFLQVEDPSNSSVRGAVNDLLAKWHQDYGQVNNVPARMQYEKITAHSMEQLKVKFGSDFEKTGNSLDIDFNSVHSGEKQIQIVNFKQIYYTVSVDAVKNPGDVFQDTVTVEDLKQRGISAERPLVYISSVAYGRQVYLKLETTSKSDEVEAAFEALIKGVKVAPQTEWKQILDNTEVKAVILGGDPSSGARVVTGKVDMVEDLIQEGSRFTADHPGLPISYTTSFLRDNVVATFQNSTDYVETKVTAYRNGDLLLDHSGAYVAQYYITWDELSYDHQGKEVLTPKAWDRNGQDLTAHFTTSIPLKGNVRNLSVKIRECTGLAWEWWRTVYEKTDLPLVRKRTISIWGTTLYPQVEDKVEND

One may read the IC50 as the concentration needed to halve the response being measured. Regarding `COc1ccc(-n2c(C(=O)N(C)C)c(O)c(O)c2C(=O)N(C)C)cc1` [UL1-005, 3,4-Dihydroxy-1-(4-methoxyphenyl)-N^2,N^2,N^5,N^5-tetramethyl-1H-pyrrole-2,5-dicarboxamide], the “Ciliary beating frequency (CBF) in the presence of pneumolysin” value at pneumolysin [1] is given as “No significant loss of the CBF”. Besides, the concentration for half-maximal inhibition (IC50) against pneumolysin [2] was under 490 nM; at pneumolysin [4] (Table 1), 200 nM; at pneumolysin [4] (Table 2), 200 nM. The “Solubility in 0.9% (w/v) saline, pH 6.5 or PBS pH 7.2” value in data set [3] is given as “Not soluble”. In data set [5], the half-life is under 30 min.

Source of the values: patent publication US20160130224A1, “Novel Pyrrole Derivatives” (priority 2013, published 2016).
